This experiment has as its target T1, Human plasma kallikrein (Homo sapiens, UniProt P03952).
T1 construct: yields a heavy chain (371 amino acids) and a light chain (248 amino acids); purchased Enzyme Research Laboratories
The experiment in a line: Kallikrein Assay (fluorogenic substrate hydrolysis, AFC release). The class given is biochemical. The settings on record: purified Human plasma kallikrein 0.5 nM; substrate Acetyl-K—P—R-AFC 100 mM; 50 mM HEPES pH 7.4. As for the experimental part:
The effectiveness of a compound of the present invention as an inhibitor of Kallikrein can be determined using a relevant purified serine protease, and an appropriate synthetic substrate. The rate of hydrolysis of the chromogenic or fluorogenic substrate by the relevant serine protease was measured both in the absence and presence of compounds of the present invention. Assays were conducted at room temperature or at 37° C. […] A decrease in the rate of fluorescence change in the presence of inhibitor is indicative of enzyme inhibition. Such methods are known to one skilled in the art. The results of this assay are expressed as the half-maximal inhibitory concentrations (IC50), or the inhibitory constant, Ki.
Kallikrein determinations were made in 50 mM HEPES buffer at pH 7.4 containing 150 mM NaCl, 5 mM CaCl2), and 0.1% PEG 8000 (polyethylene glycol; Fisher Scientific). Determinations were made using purified Human plasma kallikrein at a final concentration of 0.5 nM (Enzyme Research Laboratories) and the synthetic substrate, Acetyl-K—P—R-AFC (Sigma #C6608) at a concentration of […].
Activity assays were performed by diluting a stock solution of substrate at least tenfold to a final concentration ≤0.2 Km into a solution containing enzyme or enzyme equilibrated with inhibitor. Times required to achieve equilibration between enzyme and inhibitor were determined in control experiments. The reactions were performed under linear progress curve conditions and fluorescence increase measured at 405 Ex/510 Em nm. Values were converted to percent inhibition of the control reaction (after subtracting 100% Inhibition value). IC50 was determined by inflection point from a four parameter logistic curve fit. Ki was calculated using the Cheng Prusoff equation, Ki=IC50/(1+([S]/Km)).
T1 sequence (P03952 391-638 limits assumed): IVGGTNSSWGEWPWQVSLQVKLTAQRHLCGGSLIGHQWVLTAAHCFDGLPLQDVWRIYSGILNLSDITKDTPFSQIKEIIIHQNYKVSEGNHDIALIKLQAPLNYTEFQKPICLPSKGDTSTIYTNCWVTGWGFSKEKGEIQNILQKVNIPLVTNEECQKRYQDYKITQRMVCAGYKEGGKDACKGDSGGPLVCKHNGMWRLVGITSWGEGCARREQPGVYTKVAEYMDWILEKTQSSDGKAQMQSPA
T1 sequence (P03952 20-390 partner limits assumed): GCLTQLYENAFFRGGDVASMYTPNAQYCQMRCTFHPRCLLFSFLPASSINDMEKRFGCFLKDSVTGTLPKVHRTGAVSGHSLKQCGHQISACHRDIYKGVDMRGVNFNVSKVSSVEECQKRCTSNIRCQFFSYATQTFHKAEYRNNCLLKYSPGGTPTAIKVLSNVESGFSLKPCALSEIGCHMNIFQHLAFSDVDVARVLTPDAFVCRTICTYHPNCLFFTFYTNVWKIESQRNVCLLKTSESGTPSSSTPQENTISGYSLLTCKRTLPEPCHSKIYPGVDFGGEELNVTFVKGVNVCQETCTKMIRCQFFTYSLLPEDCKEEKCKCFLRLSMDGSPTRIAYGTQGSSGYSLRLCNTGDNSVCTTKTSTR
As usually defined, the IC50 is the concentration that gives 50% inhibition. Low readings indicate inhibition by little substance, high ones a need for much substance. The molecule `Cc1ccc(C#N)c([C@H]2C[C@@H](NC(=O)c3cnn(C(C)c4cnc(N5C[C@H]6C[C@H]6C5=O)c(C)c4C)c3)C2)c1` (single isomer, unassigned) [Example 45, N-((cis)-3-(2-cyano-5-methylphenyl)cyclobutyl)-1-((R or S)-1-(4,5-dimethyl-6-((1R,5S)-2-oxo-3-azabicyclo[3.1.0]hexan-3-yl)pyridin-3-yl)ethyl)-1H-pyrazole-4-carboxamide] gave an IC50 of 0.2 nM. This lies in the sub-nanomolar range. In the case of `Cc1ccc(C#N)c([C@H]2C[C@@H](NC(=O)c3cnn(C(C)c4cnc(N5C[C@H]6C[C@H]6C5=O)c(C)c4C)c3)C2)c1` (single isomer, unassigned) [Example 46, N-((cis)-3-(2-cyano-5-methylphenyl)cyclobutyl)-1-((S or R)-1-(4,5-dimethyl-6-((1R,5S)-2-oxo-3-azabicyclo[3.1.0]hexan-3-yl)pyridin-3-yl)ethyl)-1H-pyrazole-4-carboxamide] it was 2.7 nM; in that of `Cc1cc(N2C[C@H]3C[C@H]3C2=O)nnc1C(C)n1cc(C(=O)N[C@H]2C[C@@H](c3cc(Cl)ccc3C#N)C2)cn1` (single isomer, unassigned) [Example 47, N-((cis)-3-(5-chloro-2-cyanophenyl)cyclobutyl)-1-((R or S)-1-(4-methyl-6-((1R,5S)-2-oxo-3-azabicyclo[3.1.0]hexan-3-yl)pyridazin-3-yl)ethyl)-1H-pyrazole-4-carboxamide], 2.1 nM; in that of `Cc1cc(N2C[C@H]3C[C@H]3C2=O)nnc1C(C)n1cc(C(=O)N[C@H]2C[C@@H](c3cc(Cl)ccc3C#N)C2)cn1` (single isomer, unassigned) [Example 48, N-((cis)-3-(5-chloro-2-cyanophenyl)cyclobutyl)-1-((S or R)-1-(4-methyl-6-((1R,5S)-2-oxo-3-azabicyclo[3.1.0]hexan-3-yl)pyridazin-3-yl)ethyl)-1H-pyrazole-4-carboxamide], 127 nM.

For the molecule `COCc1nn(C(C)c2cnc(N3C[C@H]4C[C@H]4C3=O)cc2C)cc1C(=O)N[C@H]1C[C@@H](c2cc(Cl)ccc2C#N)C1` (single isomer, unassigned) [Example 49, N-((cis)-3-(5-chloro-2-cyanophenyl)cyclobutyl)-3-(methoxymethyl)-1-((R or S)-1-(4-methyl-6-((1R,5S)-2-oxo-3-azabicyclo[3.1.0]hexan-3-yl)pyridin-3-yl)ethyl)-1H-pyrazole-4-carboxamide], the IC50 is 0.4 nM.

With `COCc1nn(C(C)c2cnc(N3C[C@H]4C[C@H]4C3=O)cc2C)cc1C(=O)N[C@H]1C[C@@H](c2cc(Cl)ccc2C#N)C1` (single isomer, unassigned) [Example 50, N-((cis)-3-(5-chloro-2-cyanophenyl)cyclobutyl)-3-(methoxymethyl)-1-((S or R)-1-(4-methyl-6-((1R,5S)-2-oxo-3-azabicyclo[3.1.0]hexan-3-yl)pyridin-3-yl)ethyl)-1H-pyrazole-4-carboxamide], half-maximal inhibition (IC50) required 8.2 nM.

`Cc1ccc(C#N)c([C@H]2C[C@@H](NC(=O)c3cnn(C(C)c4cnc(N5C[C@H]6C[C@H]6C5=O)c(C)n4)c3)C2)n1` (single isomer, unassigned) [Example 51, N-((cis)-3-(3-cyano-6-methylpyridin-2-yl)cyclobutyl)-1-((R or S)-1-(6-methyl-5-((1R,5S)-2-oxo-3-azabicyclo[3.1.0]hexan-3-yl)pyrazin-2-yl)ethyl)-1H-pyrazole-4-carboxamide] showed a 50% inhibitory concentration (IC50) of 2.4 nM. In the case of `Cc1ccc(C#N)c([C@H]2C[C@@H](NC(=O)c3cnn(C(C)c4cnc(N5C[C@H]6C[C@H]6C5=O)c(C)n4)c3)C2)n1` (single isomer, unassigned) [Example 52, N-((cis)-3-(3-cyano-6-methylpyridin-2-yl)cyclobutyl)-1-((S or R)-1-(6-methyl-5-((1R,5S)-2-oxo-3-azabicyclo[3.1.0]hexan-3-yl)pyrazin-2-yl)ethyl)-1H-pyrazole-4-carboxamide] it was 10.1 nM.

`Cc1cc(N2C[C@H]3C[C@H]3C2=O)nnc1C(C)n1cc(C(=O)N[C@H]2C[C@@H](c3cc(Cl)ccc3C#N)C2)cn1` (single isomer, unassigned) [Example 53, N-((cis)-3-(5-chloro-2-cyanophenyl)cyclobutyl)-1-((R or S)-1-(4-methyl-6-((1R,5S)-2-oxo-3-azabicyclo[3.1.0]hexan-3-yl)pyridazin-3-yl)ethyl)-1H-pyrazole-4-carboxamide] displayed a half-inhibitory concentration (IC50) of 4.7 nM. This IC50 is about 2.1-fold lower than that of the molecule before.

In turn, `Cc1cc(N2C[C@H]3C[C@H]3C2=O)nnc1C(C)n1cc(C(=O)N[C@H]2C[C@@H](c3cc(Cl)ccc3C#N)C2)cn1` (single isomer, unassigned) [Example 54, N-((cis)-3-(5-chloro-2-cyanophenyl)cyclobutyl)-1-((S or R)-1-(4-methyl-6-((1R,5S)-2-oxo-3-azabicyclo[3.1.0]hexan-3-yl)pyridazin-3-yl)ethyl)-1H-pyrazole-4-carboxamide] came in with an IC50 of 239 nM. Compared with the last molecule, the IC50 is about 51-fold higher. The same measure for `Cc1cc([C@@H](C)n2cc(C(=O)N[C@H]3C[C@@H](c4cc(Cl)ccc4C#N)C3)nn2)cnc1N1C[C@H]2C[C@H]2C1=O` (single isomer, unassigned) [Example 55]: 0.6 nM. In the case of `Cc1cc([C@H](C)n2cc(C(=O)N[C@H]3C[C@@H](c4cc(Cl)ccc4C#N)C3)nn2)cnc1N1C[C@H]2C[C@H]2C1=O` (single isomer, unassigned) [Example 56] it was 1.5 nM.

Turning to `CC(c1ccc(N2C[C@H]3C[C@H]3C2=O)nc1)n1cc(C(=O)N[C@H]2C[C@@H](c3cc(Cl)ccc3C#N)C2)nn1` (single isomer, unassigned) [Example 57, N-((cis)-3-(5-chloro-2-cyanophenyl)cyclobutyl)-1-((R or S)-1-(6-((1R,5S)-2-oxo-3-azabicyclo[3.1.0]hexan-3-yl)pyridin-3-yl)ethyl)-1H-1,2,3-triazole-4-carboxamide], the IC50 was determined as 7.7 nM. `CC(c1ccc(N2C[C@H]3C[C@H]3C2=O)nc1)n1cc(C(=O)N[C@H]2C[C@@H](c3cc(Cl)ccc3C#N)C2)nn1` (single isomer, unassigned) [Example 58, N-((cis)-3-(5-chloro-2-cyanophenyl)cyclobutyl)-1-((S or R)-1-(6-((1R,5S)-2-oxo-3-azabicyclo[3.1.0]hexan-3-yl)pyridin-3-yl)ethyl)-1H-1,2,3-triazole-4-carboxamide] showed an IC50 of 5 nM. The same measure for `Cc1cc(N2C[C@H]3C[C@H]3C2=O)ncc1C(C)n1cc(C(=O)N[C@H]2C[C@@H](c3cc(Cl)ccc3C#N)C2)nn1` (single isomer, unassigned) [Example 59, N-((cis)-3-(5-chloro-2-cyanophenyl)cyclobutyl)-1-((R or S)-1-(4-methyl-6-((1R,5S)-2-oxo-3-azabicyclo[3.1.0]hexan-3-yl)pyridin-3-yl)ethyl)-1H-1,2,3-triazole-4-carboxamide]: 0.6 nM; for `Cc1cc(N2C[C@H]3C[C@H]3C2=O)ncc1C(C)n1cc(C(=O)N[C@H]2C[C@@H](c3cc(Cl)ccc3C#N)C2)nn1` (single isomer, unassigned) [Example 60, N-((cis)-3-(5-chloro-2-cyanophenyl)cyclobutyl)-1-((S or R)-1-(4-methyl-6-((1R,5S)-2-oxo-3-azabicyclo[3.1.0]hexan-3-yl)pyridin-3-yl)ethyl)-1H-1,2,3-triazole-4-carboxamide]: 14.6 nM.
